{
  "source": "paper PMC12892976",
  "about": "“Alkylation-based optimization of antifungal FPPS inhibitors yields a potent, broad-spectrum lipophilic zoledronate derivative” (mBio, 2025)",
  "type_in_all_cases": "cell-based",
  "key": {"Saccharomyces cerevisiae": {"test_system": "Saccharomyces cerevisiae", "assay": "checkerboard drug interaction (FICI, MICc);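 for FICI (FLC:INH): simplified diagonal checkerboard screen pairing azole antifungals with FPPS inhibitors, FICI calculated under the Loewe additivity model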;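 for FLC MICc: simplified diagonal checkerboard screen pairing antifungals with FPPS inhibitors, FICI calculated under the Loewe additivity model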;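 for ITR MICc: simplified diagonal checkerboard screen pairing antifungals with FPPS inhibitors, FICI calculated under the Loewe additivity model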;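 for KET MICc: simplified diagonal checkerboard screen pairing antifungals with FPPS inhibitors, FICI calculated under the Loewe additivity model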", "set-up": "INH MICc / INH MICc (ITR:INH) / INH MICc (KET:INH) / INH MICc (FLC:INH): unit not given beside the values", "conditions": "S. cerevisiae; for INH FD (MIC-MICc fold decrease): fold decrease of inhibitor MIC"}, "Candida albicans [1]": {"test_system": "Candida albicans", "assay": "MIC/MFC broth microdilution (CLSI)", "conditions": "Candida albicans SC5314", "experimental": "Antifungal susceptibility was determined by broth microdilution according to the CLSI guidelines described in M27-Ed4 ([16]). […] MFC was determined by back-plating drug-treated cultures from MIC broths onto SDA plates. The MFC was defined as the lowest concentration from which no colonies could be cultured."}, "Candida albicans [2]": {"test_system": "Candida albicans", "assay": "checkerboard drug interaction (FICI, MICc)", "conditions": "C. albicans; for INH FD (MIC-MICc fold decrease): fold decrease of inhibitor MIC", "experimental": "(§1) Drug interactions between antifungals and FPPS inhibitors were investigated using a simplified checkerboard diagonal screening method ([45]). […] FICIs were determined according to the Loewe additivity model ([17])."}, "Trichophyton rubrum": {"test_system": "Trichophyton rubrum", "assay": "checkerboard drug interaction (FICI, MICc)", "conditions": "T. rubrum", "experimental": "as §1"}, "Cryptococcus neoformans": {"test_system": "Cryptococcus neoformans", "assay": "checkerboard drug interaction (FICI, MICc)", "conditions": "C. neoformans; for INH FD (MIC-MICc fold decrease): fold decrease of inhibitor MIC", "experimental": "as §1"}, "Candida glabrata": {"test_system": "Candida glabrata", "assay": "checkerboard drug interaction (FICI, MICc)", "conditions": "C. glabrata; for INH FD (MIC-MICc fold decrease): fold decrease of inhibitor MIC", "experimental": "as §1"}, "[3]": {"conditions": "FLC:INH combination, MIC of the inhibitor in combination with FLC"}, "[4]": {"conditions": "FLC:INH combination, fold decrease of FLC MIC"}, "[5]": {"conditions": "ITR:INH combination, MIC of the inhibitor in combination with ITR"}, "[6]": {"conditions": "ITR:INH combination, fold decrease of ITR MIC"}, "[7]": {"conditions": "KET:INH combination, MIC of the inhibitor in combination with KET"}, "[8]": {"conditions": "KET:INH combination, fold decrease of KET MIC"}},
  "data": [
    {"smiles": "CCCCCCCCCCN1CCC[C@H]1C(=O)N[C@@H](CC(=O)OC)C(=O)OC", "note": "[dmPLA10]", "values": [
      {"measurement": "FICI", "setting": "Saccharomyces cerevisiae; FLC:INH combination", "result": "≥4"},
      {"measurement": "FLC MICc", "setting": "Saccharomyces cerevisiae; FLC:INH combination, MIC of FLC in combination with the inhibitor", "result": 8},
      {"measurement": "INH MICc", "setting": "Saccharomyces cerevisiae; [3]", "result": 16},
      {"measurement": "FLC FD (MIC-MICc fold decrease)", "setting": "Saccharomyces cerevisiae; [4]", "result": -2},
      {"measurement": "INH FD (MIC-MICc fold decrease)", "setting": "Saccharomyces cerevisiae; FLC:INH combination", "result": -2},
      {"measurement": "FICI", "setting": "Saccharomyces cerevisiae; ITR:INH combination", "result": 1.13},
      {"measurement": "ITR MICc", "setting": "Saccharomyces cerevisiae; ITR:INH combination, MIC of ITR in combination with the inhibitor", "result": 0.25},
      {"measurement": "INH MICc", "setting": "Saccharomyces cerevisiae; [5]", "result": 1},
      {"measurement": "ITR FD (MIC-MICc fold decrease)", "setting": "Saccharomyces cerevisiae; [6]", "result": 1},
      {"measurement": "INH FD (MIC-MICc fold decrease)", "setting": "Saccharomyces cerevisiae; ITR:INH combination", "result": 8},
      {"measurement": "FICI", "setting": "Saccharomyces cerevisiae; KET:INH combination", "result": 1.13},
      {"measurement": "KET MICc", "setting": "Saccharomyces cerevisiae; KET:INH combination, MIC of KET in combination with the inhibitor", "result": 2},
      {"measurement": "INH MICc", "setting": "Saccharomyces cerevisiae; [7]", "result": 1},
      {"measurement": "KET FD (MIC-MICc fold decrease)", "setting": "Saccharomyces cerevisiae; [8]", "result": 1},
      {"measurement": "INH FD (MIC-MICc fold decrease)", "setting": "Saccharomyces cerevisiae; KET:INH combination", "result": 8},
      {"measurement": "MFC", "setting": "Candida albicans [1]", "result": 32, "unit": "µg/mL"},
      {"measurement": "MIC", "setting": "Candida albicans [1]", "result": 32, "unit": "µg/mL"},
      {"measurement": "FICI", "setting": "Candida albicans [2]; FLC:INH combination", "result": 1.5},
      {"measurement": "INH MICc", "setting": "Candida albicans [2]; [3]", "result": 8},
      {"measurement": "FLC FD (MIC-MICc fold decrease)", "setting": "Candida albicans [2]; [4]", "result": 1},
      {"measurement": "INH FD (MIC-MICc fold decrease)", "setting": "Candida albicans [2]; FLC:INH combination", "result": 2},
      {"measurement": "FICI", "setting": "Candida albicans [2]; ITR:INH combination", "result": 0.75},
      {"measurement": "INH MICc", "setting": "Candida albicans [2]; [5]", "result": 4},
      {"measurement": "ITR FD (MIC-MICc fold decrease)", "setting": "Candida albicans [2]; [6]", "result": 2},
      {"measurement": "INH FD (MIC-MICc fold decrease)", "setting": "Candida albicans [2]; ITR:INH combination", "result": 4},
      {"measurement": "FICI", "setting": "Candida albicans [2]; KET:INH combination", "result": 0.75},
      {"measurement": "INH MICc", "setting": "Candida albicans [2]; [7]", "result": 4},
      {"measurement": "KET FD (MIC-MICc fold decrease)", "setting": "Candida albicans [2]; [8]", "result": 2},
      {"measurement": "INH FD (MIC-MICc fold decrease)", "setting": "Candida albicans [2]; KET:INH combination", "result": 4},
      {"measurement": "FICI (FLC:INH)", "setting": "Trichophyton rubrum; Fractional Inhibitory Concentration Index, fluconazole + inhibitor", "result": "≥4"},
      {"measurement": "FICI (ITR:INH)", "setting": "Trichophyton rubrum; Fractional Inhibitory Concentration Index, itraconazole + inhibitor", "result": 1.03},
      {"measurement": "FICI (KET:INH)", "setting": "Trichophyton rubrum; Fractional Inhibitory Concentration Index, ketoconazole + inhibitor", "result": 1.06},
      {"measurement": "INH MICc (FLC:INH)", "setting": "Trichophyton rubrum; MIC of the inhibitor in combination with fluconazole", "result": 64},
      {"measurement": "INH MICc (ITR:INH)", "setting": "Trichophyton rubrum; MIC of the inhibitor in combination with itraconazole", "result": 8},
      {"measurement": "INH MICc (KET:INH)", "setting": "Trichophyton rubrum; MIC of the inhibitor in combination with ketoconazole", "result": 8},
      {"measurement": "FLC FD (FLC:INH)", "setting": "Trichophyton rubrum; MIC-MICc fold decrease of fluconazole, negative = increase", "result": 2},
      {"measurement": "ITR FD (ITR:INH)", "setting": "Trichophyton rubrum; MIC-MICc fold decrease of itraconazole, negative = increase", "result": 32},
      {"measurement": "KET FD (KET:INH)", "setting": "Trichophyton rubrum; MIC-MICc fold decrease of ketoconazole, negative = increase", "result": 16},
      {"measurement": "INH FD (FLC:INH)", "setting": "Trichophyton rubrum; MIC-MICc fold decrease of the inhibitor, with fluconazole", "result": "< -4"},
      {"measurement": "INH FD (ITR:INH)", "setting": "Trichophyton rubrum; MIC-MICc fold decrease of the inhibitor, with itraconazole", "result": 1},
      {"measurement": "INH FD (KET:INH)", "setting": "Trichophyton rubrum; MIC-MICc fold decrease of the inhibitor, with ketoconazole", "result": 1},
      {"measurement": "FICI", "setting": "Cryptococcus neoformans; FLC:INH combination", "result": 0.75},
      {"measurement": "INH MICc", "setting": "Cryptococcus neoformans; [3]", "result": 8},
      {"measurement": "FLC FD (MIC-MICc fold decrease)", "setting": "Cryptococcus neoformans; [4]", "result": 4},
      {"measurement": "INH FD (MIC-MICc fold decrease)", "setting": "Cryptococcus neoformans; FLC:INH combination", "result": 2},
      {"measurement": "FICI", "setting": "Cryptococcus neoformans; ITR:INH combination", "result": 0.75},
      {"measurement": "INH MICc", "setting": "Cryptococcus neoformans; [5]", "result": 8},
      {"measurement": "ITR FD (MIC-MICc fold decrease)", "setting": "Cryptococcus neoformans; [6]", "result": 4},
      {"measurement": "INH FD (MIC-MICc fold decrease)", "setting": "Cryptococcus neoformans; ITR:INH combination", "result": 2},
      {"measurement": "FICI", "setting": "Cryptococcus neoformans; KET:INH combination", "result": 0.75},
      {"measurement": "INH MICc", "setting": "Cryptococcus neoformans; [7]", "result": 8},
      {"measurement": "KET FD (MIC-MICc fold decrease)", "setting": "Cryptococcus neoformans; [8]", "result": 4},
      {"measurement": "INH FD (MIC-MICc fold decrease)", "setting": "Cryptococcus neoformans; KET:INH combination", "result": 2},
      {"measurement": "FICI", "setting": "Candida glabrata; FLC:INH combination", "result": "≥4"},
      {"measurement": "INH MICc", "setting": "Candida glabrata; [3]", "result": 16},
      {"measurement": "FLC FD (MIC-MICc fold decrease)", "setting": "Candida glabrata; [4]", "result": 1},
      {"measurement": "INH FD (MIC-MICc fold decrease)", "setting": "Candida glabrata; FLC:INH combination", "result": 1},
      {"measurement": "FICI", "setting": "Candida glabrata; ITR:INH combination", "result": 1.5},
      {"measurement": "INH MICc", "setting": "Candida glabrata; [5]", "result": 4},
      {"measurement": "ITR FD (MIC-MICc fold decrease)", "setting": "Candida glabrata; [6]", "result": 2},
      {"measurement": "INH FD (MIC-MICc fold decrease)", "setting": "Candida glabrata; ITR:INH combination", "result": 4},
      {"measurement": "FICI", "setting": "Candida glabrata; KET:INH combination", "result": 3}
    ]}
  ]
}
